The results in this text go back to patent US20030073850A1, “4-Imidazole derivatives of benzyl and restricted benzyl sulfonamides, sulfamides, ureas, carbamates, and amides and their use” (priority 1998, published 2003).

The test system of data set [1] is anesthetized dogs. The data set is described as follows: Mean arterial pressure (MAP) in anesthetized dogs. Type of data set: in vivo, dog. The conditions noted are these: iv dose causing a maximum increase in MAP of 20 mm Hg, anesthetized female Beagle dogs.
Data set [2] relates to anesthetized dogs. The data set can be described thus: Intraurethral pressure (IUP) in anesthetized dogs. Type of data set: in vivo, dog.
Data set [3] has as its target T1, α1b (hamster receptor expressed in mouse fibroblasts) (Mesocricetus auratus, UniProt P18841).
T1 construct: expressed in transfected cells; host or cells: mouse fibroblasts
T1 sequence (P18841 1-515): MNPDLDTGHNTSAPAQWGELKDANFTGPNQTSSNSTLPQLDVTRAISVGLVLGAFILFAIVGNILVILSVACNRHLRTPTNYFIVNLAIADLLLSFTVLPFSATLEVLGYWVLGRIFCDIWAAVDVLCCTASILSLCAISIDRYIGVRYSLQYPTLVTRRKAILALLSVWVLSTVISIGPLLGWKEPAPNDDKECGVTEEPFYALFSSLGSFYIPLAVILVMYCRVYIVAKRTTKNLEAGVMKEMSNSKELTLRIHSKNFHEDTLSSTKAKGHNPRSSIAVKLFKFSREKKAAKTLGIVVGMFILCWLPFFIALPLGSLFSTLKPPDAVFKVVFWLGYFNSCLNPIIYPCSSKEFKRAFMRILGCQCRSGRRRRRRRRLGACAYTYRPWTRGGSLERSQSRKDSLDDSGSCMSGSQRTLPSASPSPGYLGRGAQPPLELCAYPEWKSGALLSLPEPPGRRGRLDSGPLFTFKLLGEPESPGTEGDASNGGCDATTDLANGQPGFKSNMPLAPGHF
The data set is described as follows: Radioligand binding, [3H]-prazosin, α1b. Conditions: hamster receptor expressed in mouse fibroblasts, [3H]-prazosin; read-out: Radioligand Binding Ki α1b (Hamster). The method in brief: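 [3H]-prazosin radioligand displacement; α1A from rat submaxillary gland tissue, α1b hamster and α1d rat receptors each expressed in mouse fibroblasts.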

Another data set concerns the target T2, α1A (rabbit urethra) (Oryctolagus cuniculus, UniProt O02824).
T2 construct: tested for α1A functional activity using rabbit urethra; from tissue; host or cells: rabbit urethra (female New Zealand white rabbits)
T2 sequence (O02824 1-466): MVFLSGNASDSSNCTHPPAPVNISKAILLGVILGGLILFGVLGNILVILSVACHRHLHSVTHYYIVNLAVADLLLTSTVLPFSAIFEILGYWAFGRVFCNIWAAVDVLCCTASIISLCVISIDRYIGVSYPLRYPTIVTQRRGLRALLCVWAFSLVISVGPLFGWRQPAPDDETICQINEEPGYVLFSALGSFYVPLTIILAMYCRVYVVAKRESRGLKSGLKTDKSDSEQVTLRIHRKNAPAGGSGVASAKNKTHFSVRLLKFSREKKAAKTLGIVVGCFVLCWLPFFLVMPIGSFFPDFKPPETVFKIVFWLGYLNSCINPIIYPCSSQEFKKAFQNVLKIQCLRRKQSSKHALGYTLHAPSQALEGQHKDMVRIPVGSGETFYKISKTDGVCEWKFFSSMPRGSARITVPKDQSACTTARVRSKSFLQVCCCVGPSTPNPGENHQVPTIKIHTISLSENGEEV
The data set is described as follows: Agonist tissue response, contraction of rabbit urethra. It counts as biochemical. The conditions noted are these: values without asterisk, read-out: Agonist Tissue Response (pD2) α1A (rab ureth) (converted). As to the method:
Most of the compounds were tested for α1A functional activity using rabbit urethra as follows. Female New Zealand white rabbits (2.0-3.5 Kg) were sedated with CO2 and decapitated. […] Subsequent experimental conditions were as described above for the other tissues. Agonist concentration response curves were cumulative except for the vas deferens assay in which the transient response made such measurements impractical.

`CCS(=O)(=O)Nc1cccc2c1OCCC2c1c[nH]cn1` (single isomer, unassigned; (+)) [Example 95, (+) N-[4-(1H-imidazol-4-yl)-3,4-dihydro-2H-chromen-8-yl]ethanesulfonamide]: the melting point (commonly the temperature, or range, at which the solid turns liquid) was 223 to 226 °C. Moreover, in the data set on anesthetized dogs [1], the “Mean MAP ED20” value came out at 109.1 nmol/kg. For the same compound, in the data set on anesthetized dogs [2] (Canis lupus familiaris, iv dose causing a maximum increase in IUP of 5 mm Hg, anesthetized female Beagle dogs, read-out: Mean IUP ED5), the ED (5 mm Hg) was 0.113 µmol/kg. The “Mean Selectivity Ratio MAP ED20/IUP ED5” value with anesthetized dogs [2] (anesthetized dogs, iv) is 0.99. For the same compound, the Ki (in general, the dissociation constant of the complex between target and ligand, obtained from inhibition or displacement) in data set [3] stood at 10 µM. The EC50 on α1A (rabbit urethra) was 1380 nM.
